Values joined by “and” are separate entries in the source; they are usually repeats but may differ in a detail not shown here. Identical values can stand only once. Like-named read-outs stand apart in the source and are kept apart here.
Assays:
P450 3A5 = target: T1, P450 3A5 (Homo sapiens, UniProt P20815); test: Type 1 spectral shift equilibrium binding to P450 3A5; details: for concentration dependence of type 1 spectral shift (shape of binding curve): 3A5 binding isotherm; for ΔAmax/[P450]: one-site binding (Equation 2; tiamulin Equation 3)
T1 construct: 4-histidine tag (C); made in house; host or cells: Escherichia coli
T1 sequence (P20815 with tags, fused parts or gaps limits assumed): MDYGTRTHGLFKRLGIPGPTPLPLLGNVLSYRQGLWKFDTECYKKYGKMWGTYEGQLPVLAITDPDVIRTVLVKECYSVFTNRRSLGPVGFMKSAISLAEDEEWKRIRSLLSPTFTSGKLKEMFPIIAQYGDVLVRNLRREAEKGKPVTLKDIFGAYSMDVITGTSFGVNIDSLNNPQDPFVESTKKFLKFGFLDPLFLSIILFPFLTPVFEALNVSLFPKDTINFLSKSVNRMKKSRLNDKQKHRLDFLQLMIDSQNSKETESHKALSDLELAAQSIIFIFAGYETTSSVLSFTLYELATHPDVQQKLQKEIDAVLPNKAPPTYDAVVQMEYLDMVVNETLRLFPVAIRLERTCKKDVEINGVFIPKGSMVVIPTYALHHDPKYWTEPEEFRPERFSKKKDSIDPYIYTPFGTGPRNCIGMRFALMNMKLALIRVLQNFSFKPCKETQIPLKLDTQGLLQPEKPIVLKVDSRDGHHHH
Procedure: The sample cuvette contained 3A5, and the corresponding buffer was in the reference cuvette. The protein buffer consisted of 50 mM sodium Hepes at pH 7.4, 50 mM potassium acetate at pH 7.4, 0.5 mM EDTA, and 20% glycerol. […] The digital spectra were sampled at 1 nm intervals for 1 s. Excel was used to subtract the initial spectrum from subsequent spectra with volume corrections for substrate addition. […] Initial values for Kds and RSRs for each complex are provided. Ligand-free P450 was assigned an RSR of zero. The output includes predicted values for Kds and RSRs, correlations between parameters, and several statistical values for goodness of fit and variances. In addition, graphs of the fit of the data to the model and residuals are produced in several formats.

[1] = test system: human microsomal testosterone turnover; parameters: method as in PMID 33137559; details: human microsomes; cited from earlier work
3A5 [2] = test system: 3A5; parameters: method as in PMID 27485383; details: cited from earlier work
3A5 [3] = test system: 3A5; parameters: method as in PMID 17200113; details: type 2 shift, 1 μM P450, biphasic response; cited from earlier work
[4] = type 1 spectral shift, one-site binding (Equation 2; tiamulin tight-binding Equation 3), [P450] 0.94–2.03 μM, read-out: Kd

**Q.** With `C=C[C@]1(C)C[C@@H](OC(=O)CO)[C@]2(C)[C@H](C)CC[C@]3(CCC(=O)[C@H]32)[C@@H](C)[C@@H]1O` [Pleuromutilin] as the compound, how does the “concentration dependence of type 1 spectral shift (shape of binding curve)” value (P450 3A5) read?
**A.** The value was “hyperbolic”.

**Q.** What about the “ΔAmax/[P450]” value (P450 3A5; type 1 spectral shift) of the same compound?
**A.** The value was 0.12 ± 0.02.

**Q.** What about the Kd (P450 3A5; [4]) of the same compound?
**A.** The Kd was 32.7 ± 4.3 µM.

**Q.** With `C=C[C@]1(C)C[C@@H](OC(=O)CSCCN(CC)CC)[C@]2(C)[C@H](C)CC[C@]3(CCC(=O)[C@H]32)[C@@H](C)[C@@H]1O` [Tiamulin] as the compound, how does the “concentration dependence of type 1 spectral shift (shape of binding curve)” value (P450 3A5) read?
**A.** Its value is “hyperbolic”.

**Q.** And the “ΔAmax/[P450]” value (P450 3A5; type 1 spectral shift)?
**A.** The value was 0.08 ± 0.00.

**Q.** And the Kd (P450 3A5; [4])?
**A.** The Kd was 6.31 ± 1.02 µM.

**Q.** And the IC50 [1]?
**A.** Its IC50 is 1.69 µM.

**Q.** For `C=C[C@]1(C)C[C@@H](OC(=O)CS[C@@H]2CC[C@@H](N)C[C@H]2O)[C@]2(C)[C@H](C)CC[C@]3(CCC(=O)[C@H]32)[C@@H](C)[C@@H]1O` [Lefamulin], which “concentration dependence of type 1 spectral shift (shape of binding curve)” value (P450 3A5) is on record?
**A.** Its value is “hyperbolic”.

**Q.** What about the “ΔAmax/[P450]” value (P450 3A5; type 1 spectral shift) of the same compound?
**A.** The value was 0.06 ± 0.00.

**Q.** And the Kd (P450 3A5; [4])?
**A.** The Kd was 55.1 ± 7.8 µM.

**Q.** Which results are given for `C=C[C@]1(C)C[C@@H](OC(=O)CS[C@@H]2C[C@H]3CC[C@@H](C2)N3C)[C@]2(C)[C@H](C)CC[C@]3(CCC(=O)[C@H]32)[C@@H](C)[C@@H]1O` [Retapamulin]?
**A.** concentration dependence of type 1 spectral shift (shape of binding curve) (P450 3A5): hyperbolic; ΔAmax/[P450] (P450 3A5; type 1 spectral shift): 0.09 ± 0.00; Kd (P450 3A5; [4]): 16.6 ± 2.4 µM

**Q.** What does the source list for `CC[C@]1(C)C[C@@H](OC(=O)CSc2n[nH]c(N)n2)[C@]2(C)[C@H](C)CC[C@]3(CCC(=O)[C@H]32)[C@@H](C)[C@@H]1O` [Azamulin, (3aS,4R,5S,6R,8R,9R,9aR,10R)-6-ethyl-5-hydroxy-4,6,9,10-tetramethyl-1-oxodecahydro-3a,9-propanocyclopenta[8]annulen-8-yl [(5-amino-1H-1,2,4-triazol-3-yl)sulfanyl]acetate]?
**A.** Kd (P450 3A5; Dynafit numerical fit, model 4, [P450] 3.73–4.36 μM, 4 replicates, read-out: K1d (binary complex, two-site sequential binding model)): 0.6 µM and 0.65 µM; Kd (P450 3A5; Dynafit numerical fit, model 4, [P450] 3.73–4.36 μM, 4 replicates, read-out: K2d (ternary complex, two-site sequential binding model)): 3.4 µM and 3.41 µM; Kd (P450 3A5; type 1 spectral shift, sigmoidal curve, nominal 4 μM 3A5, n = 4, read-out: Kd (Hill equation fit)): 7.1 ± 0.4 µM; time-dependent inhibition of 3A5 (3A5 [2]): either very slow or nonexistent

**Q.** Which Hill coefficient (3A5 [3]) does the source give for `CC(=O)N1CCN(c2ccc(OCC3COC(Cn4ccnc4)(c4ccc(Cl)cc4Cl)O3)cc2)CC1` (stereo not drawn) [ketoconazole] here?
**A.** The Hill coefficient was 1.4.

— publication PMC9079302 (The Journal of Biological Chemistry, 2022)
